Reference: patent US11576911B2, “Composition and method for treatment of depression and psychosis in humans” (Glytech LLC, priority 2012, dated 2023)
Read-outs that look alike come from different tables or passages of the source.

Experiments:
Male C57Bl/6J mice [1] = assay: Elevated plus maze (EPM), DOI 2 mg/kg in all conditions; assay type: in vivo; details: for Distance Traveled Open (DTO) Mean / Percent open (PCT) Mean: Table 1
Male BalbC/J mice = assay: Rodent forced swim test (FST), immobility time; assay type: in vivo
Source text: Male BalbC/J mice (8 weeks old) from Jackson Laboratories (Bar Harbor, Me.) were used. Upon receipt, mice were assigned unique identification numbers (tail marked) and were group housed in OPTImice cages. All animals were acclimated to the colony room for 1 week prior to testing. During the period of acclimation, animals were examined on a regular basis, handled, and weighed to assure adequate health and suitability. Animals were maintained on a 12/12 light/dark cycle. The room temperature was maintained between 20 and 23° C. with a relative humidity maintained between 30% and 70%. Chow and water were provided ad libitum for the duration of the study. All testing was performed during the animal's light cycle phase.
Mice were acclimated to the test room at least 1 hour prior to commencing the test. The forced swimming test consisted of one 6-minute session of forced swimming in individual opaque cylinders (15 cm tall×10 cm wide, 1000 ml beakers) containing fresh tap water at a temperature of 23±2° C. and a depth of 12 cm (approximately 800 ml) for each test animal. The time the animal spent immobile was recorded over the 6 min trial. Every 1 min the cumulative immobility time was recorded from the start of the session and noted on the study data record sheet. Immobility was defined as the postural position of floating in the water. The animals were generally observed with the back slightly hunched and the head above water with no movements or with small stabilizing movements of the limbs. After the swim test, each animal was placed in a pre-heated cage with a heating pad and allowed to dry.
The main variable used to represent immobility in this test was the total time immobile during the 6-min test period. Statistics were performed by analysis of variance (ANOVA) with Dunnett post-hoc testing vs. the control condition or by t-test as appropriate.
Sertraline, a known antidepressant, is used as a positive control.
For this study, further NMDAR antagonist compounds were tested for their ability to reduce immobility time in the rodent FST test, indicative of potential anti-depressant effects, and further 5-HT2AR antagonists were tested for their ability to produce reductions of time spent in the open arms of the EPM, indicative to potential liability to induce anxiety, akathisia and suicidality in humans

[2] = Pharmacokinetics of D-cycloserine in rodents (plasma, IP); assay type: in vivo, mice
Experimental: For this study, male C57BL/6J mice (8 weeks old) from Jackson Laboratories (Bar Harbor, Me.) were used.
For each treatment group a total of 12 mice were dosed: 4 mice were collected at 30, 60 and 120 min. Mean plasma level was computed over this time period.

Male C57Bl/6J mice [3] = details: previously demonstrated, cited from earlier work
[4] = cited from earlier work; for Serum concentration: mean dose 8.8 mg/kg, patients (Hung et al.)
[5] = acidic gastric conditions, gastric emptying up to 3 hours; cited from earlier work
[6] = Pharmacokinetics of D-cycloserine in humans (literature)

N[C@@H]1CON=C1O [D-cycloserine, 3-Isoxazolidinone, 4-amino-, (4R)-(9CI)]
Reversal of the effects of MDL100,907 in the EPM, in words (Male C57Bl/6J mice [1]; DCS 300 mg/kg vs 30 mg/kg with MDL100,907 (Table 1 lines 6,7)): significantly reverses the effects of MDL100,907 at a dose of 300 mg/kg, but not 30 mg/kg | Effect in the EPM in the presence of aripiprazole, in words (Male C57Bl/6J mice [1]; DCS 300 mg/kg with aripiprazole 1 mg/kg): no significant effect | Reversal of the effects of lurasidone in the EPM, in words (Male C57Bl/6J mice [1]; DCS 300 mg/kg with lurasidone 0.1-0.3 mg/kg): significantly reverses the effects of lurasidone | Reversal of the effects of quetiapine in the EPM, in words (Male C57Bl/6J mice [1]; DCS 300 mg/kg with quetiapine 30 mg/kg): reversed at trend level | Distance Traveled Open (DTO) Mean (Male C57Bl/6J mice [1]; 30 mg/kg ip alone): 295.8 | Percent open (PCT) Mean (Male C57Bl/6J mice [1]; 30 mg/kg ip alone): 44.6% | Distance Traveled Open (DTO) Mean (Male C57Bl/6J mice [1]; 300 mg/kg ip alone): 287.5 | Percent open (PCT) Mean (Male C57Bl/6J mice [1]; 300 mg/kg ip alone): 45.4% | Mean distance travelled in the open arm of the EPM (Male C57Bl/6J mice [1]; Table 6, 300 mg/kg, DOI 2 mg/kg added): 369.70 | Effect on distance travelled in open arm / % time in open arm of EPM, in words (Male C57Bl/6J mice [1]; agent alone vs control, doses of Tables 1 and 2): selectively increases % time in open arms at a dose of 300 mg/kg but not at a dose of 30 mg/kg | Effect on immobility in the forced swim test, in words (Male BalbC/J mice; DCS 30 mg/kg in combination with lurasidone): did not significantly reduce immobility | Effect in the forced swim test assay, in words (Male BalbC/J mice; DCS 30 mg/kg, IP or PO (FIGS. 1 and 2)): no significant effect | Effect in the forced swim test assay, in words (Male BalbC/J mice; DCS 100 mg/kg or above, PO or IP (FIGS. 1 and 2)): highly significant | Effect on immobility in the forced swim test, in words (Male BalbC/J mice; DCS 300 mg/kg in combination with aripiprazole): did not significantly reduce immobility | Effect on immobility in the forced swim test, in words (Male BalbC/J mice; DCS 300 mg/kg in combination with brexpiprazole): significantly reduced immobility | Effect on immobility in the forced swim test, in words (Male BalbC/J mice; DCS 300 mg/kg in combination with lurasidone 0.2 to 3 mg/kg): significantly reduced immobility | Mean plasma level over 30-120 min ([2]; 30 mg/kg IP, mice): below 25 microgram/mL | Plasma levels over 30-120 min ([2]; doses of 100 mg/kg or above IP, mice): greater than 25 microgram/mL | Maximum tolerated blood level ([2]; suggested from maximum tolerated dose): approximately 125 ug/mL | Distance travelled in the open arm and % time in the open arms, in words (Male C57Bl/6J mice [3]; DCS 300 mg/kg in combination with EMD281,014): numerical increases | Distance travelled in the open arm and % time in the open arms, in words (Male C57Bl/6J mice [3]; DCS 300 mg/kg in the presence of MDL100,907): significantly increased | Serum concentration ([4]; 2 hr after dosing): 19.7 microgram/mL | Serum concentration ([4]; 6 hr after dosing): 18.1 microgram/mL | AUC over 24 hr, median ([4]; single 500 mg dose, fasting, humans (Zhu et al.)): 214 microgram-hr/mL | Hydrolysis of orally administered D-cycloserine during gastric emptying [5]: up to 50% | Sustained blood levels ([6]; 500 mg/day, human PK studies): below 25 microgram/mL | Sustained plasma level, median ([6]; corresponding to AUC over 24 hr, 500 mg (Zhu et al.)): 8.9 microgram/mL | Human dose required to produce a serum level in excess of 25 microgram/mL ([6]; from dose-serum concentration relationship of Hung et al.): exceeding 10 mg/kg
